Laboratory results published in ChEMBL document CHEMBL1145574, “Carbonic anhydrase inhibitors: Inhibition of the new membrane-associated isoform XV with phenols” (Bioorg Med Chem Lett, 2008).
pKi: −log10 of the molar value.

Key:
Carbonic anhydrase 15 = molecular target: T1, Carbonic anhydrase 15 (Mus musculus, UniProt Q99N23)
T1 sequence (Q99N23 whole entry): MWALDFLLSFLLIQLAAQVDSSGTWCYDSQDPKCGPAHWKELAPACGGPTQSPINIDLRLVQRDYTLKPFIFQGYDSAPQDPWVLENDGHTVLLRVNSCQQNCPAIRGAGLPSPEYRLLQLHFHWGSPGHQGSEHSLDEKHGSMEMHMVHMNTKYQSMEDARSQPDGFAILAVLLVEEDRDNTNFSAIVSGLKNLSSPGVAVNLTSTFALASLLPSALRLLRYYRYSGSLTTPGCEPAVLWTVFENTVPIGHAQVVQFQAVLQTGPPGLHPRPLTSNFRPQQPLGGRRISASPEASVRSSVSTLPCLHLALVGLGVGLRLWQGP
Description: Inhibition of mouse recombinant carbonic anhydrase 15 by stopped-flow CO2 hydrase assay

Carbonic anhydrase 1 = Carbonic anhydrase 1 (Homo sapiens, UniProt P00915)
Description: Inhibition of human carbonic anhydrase 1 by stopped-flow CO2 hydrase assay

Carbonic anhydrase 2 = Carbonic anhydrase 2 (Homo sapiens, UniProt P00918)
Description: Inhibition of human carbonic anhydrase 2 by stopped-flow CO2 hydrase assay

Chain of Carbonic anhydrase 1 (P00915 whole entry): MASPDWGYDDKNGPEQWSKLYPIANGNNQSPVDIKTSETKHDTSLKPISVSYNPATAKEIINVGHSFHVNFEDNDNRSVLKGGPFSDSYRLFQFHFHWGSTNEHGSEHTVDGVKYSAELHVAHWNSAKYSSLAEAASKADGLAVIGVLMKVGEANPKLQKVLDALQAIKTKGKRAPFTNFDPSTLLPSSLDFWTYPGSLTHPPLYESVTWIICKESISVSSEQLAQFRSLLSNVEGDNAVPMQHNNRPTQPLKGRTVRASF

pKi (Carbonic anhydrase 15)	pKi (Carbonic anhydrase 1)	Structure (SMILES)	pKi (Carbonic anhydrase 2)
5.63	–	Oc1c(I)cc(Cl)c2cccnc12 [CLIOQUINOL]	–
4.97	4.97	Oc1ccc(O)cc1 [HYDROQUINONE]	–
5.03	5.01	O=C(O)c1ccc(O)cc1 [PARABEN]	–
3.41	3.10	Oc1cccc(O)c1 [RESORCINOL]	–

Second part, the compound before the results:

Structure (SMILES)	pKi (Carbonic anhydrase 15)	pKi (Carbonic anhydrase 1)	pKi (Carbonic anhydrase 2)
Oc1cc(F)cc(F)c1	4.95	–	–
Oc1cc(F)ccc1F	3.67	3.87	3.06
Nc1ccc(O)cc1 [4-AMINOPHENOL]	3.47	–	–
N#Cc1ccc(O)cc1 [4-CYANOPHENOL]	3.36	3.88	–
CC(=O)Nc1ccc(O)cc1 [ACETAMINOPHEN]	5.03	5.00	5.21
Oc1ccccc1O [CATECHOL]	4.99	2.40	5.00
Oc1ccccc1 [PHENOL]	4.98	–	–
